Results: patent US7566808B2, “Management of ophthalmologic disorders, including macular degeneration” (President and Fellows of Harvard College, priority 2004, dated 2009)

Tests used:
[1] = biological target: T1, purified bovine mRPE65 (Bos taurus, UniProt Q28175); test: Fluorescence titration of mRPE65 with TDT and TDH; conditions: 0.952 μM mRPE65, phosphate buffered saline pH 7.4, 1% CHAPS; read-out: KD for binding to mRPE65
T1 construct: mRPE65 was extracted and purified from the bovine eye cups using a procedure described earlier; tissue W. L. Lawson Co; host or cells: bovine eye cups (retinal pigment epithelium)
T1 sequence (Q28175 whole entry): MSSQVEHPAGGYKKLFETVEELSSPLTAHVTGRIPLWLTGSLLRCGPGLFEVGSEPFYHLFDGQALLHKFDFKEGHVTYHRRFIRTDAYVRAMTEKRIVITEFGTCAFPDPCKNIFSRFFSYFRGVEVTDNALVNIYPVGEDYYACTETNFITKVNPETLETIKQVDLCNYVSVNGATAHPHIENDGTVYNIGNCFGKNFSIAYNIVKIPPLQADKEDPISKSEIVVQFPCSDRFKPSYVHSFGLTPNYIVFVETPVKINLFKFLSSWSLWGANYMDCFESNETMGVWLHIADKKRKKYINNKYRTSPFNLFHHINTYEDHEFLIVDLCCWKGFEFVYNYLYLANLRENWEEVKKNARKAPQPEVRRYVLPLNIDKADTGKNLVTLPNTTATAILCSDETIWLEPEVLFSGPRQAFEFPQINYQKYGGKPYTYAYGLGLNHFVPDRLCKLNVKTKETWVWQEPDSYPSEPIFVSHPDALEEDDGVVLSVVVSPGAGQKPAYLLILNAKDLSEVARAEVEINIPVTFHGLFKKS
Protocol: Purification of mRPE65: mRPE65 was extracted and purified from the bovine eye cups using a procedure described earlier. Protein purity was established by silver staining and Western blotting (1:4000 primary antibody—1 h at room temperature and 1:4000 secondary antibody 0.5 h at room temperature). Buffers were changed by dialysis in the request buffer overnight in a slide-a-lyser™ cassette from Pierce (10 KDa MWCO). RPE65 solutions were concentrated with an Amicon Ultra™ centrifugal filtration device (30 KDa-cutoff) from Millipore Corp. The final protein solution contained 100 mM phosphate buffered saline (150 mM NaCl) pH 7.4 and 1% CHAPSO. The protein concentration was measured by a modified Lowry method using the Bio-Rad DC protein assay protocol.
Fluorescence binding assays: RPE65 in PBS, 1% CHAPS, pH 7.4 was used in the fluorometric titration studies. All titrations were performed at 25° C. The samples in PBS buffer were excited at 280 nm and the fluorescence was scanned from 300 to 500 nm. Fluorescence measurements, using 450 μL quartz cuvettes with a 0.5 cm path length, were made at 25° C. on a Jobin Yvon Instruments, Fluoromax 2 employing the right-angle detection method.
The fluorescence of the protein solution was measured after equilibrating it at 25° C. for 10 min. […] The binding constant (KD) was calculated from the fluorescence intensity as described before (17,19). […]

[2] = Tolerability in treated animals; assay type: in vivo; conditions: even when administered every 48 h
Excerpt: With respect to the pharmacology of the isoprenoid mRPE65 antagonists, it should be noted that the effects of both TDT and TDH are substantially more persistent than with 13-RA, probably because they are more hydrophobic than the retinoic acids. An increase in hydrophobicity tends to slow down rates of elimination of drugs.

[3] = test system: Abca4−/− mice; test: A2E accumulation after chronic treatment of Abca4−/− mice; assay type: in vivo; conditions: 50 mg/kg i.p. twice a week for 2 months
Protocol: Tissue extraction and HPLC analysis: Posterior eye cups were pooled and homogenized in PBS using a tissue grinder. An equal volume of a mixture of chloroform/methanol (2:1) was added and the sample was extracted three times. To remove insoluble material, extracts were filtered through cotton and passed through a reversed phase (C18 Sep-Pak, Millipore) cartridge with 0.1% TFA in methanol. After removing solvent by evaporation under gas, the extract was dissolved in methanol containing 0.1% TFA, for HPLC analysis. For quantification of A2E, a Waters Alliance 2695 HPLC was employed with a Atlantis® dC18 column (Waters, 4.6×150 mm, 3 μm) and the following gradient of acetonitrile in water (containing 0.1% trifluoroacetic acid): 90-100% (0-10 min), 100% acetonitrile (10-20 min), and a flow rate of 0.8 mL/min with monitoring at 430 nm. The injection volume was 10 μL. […] Levels of A2E and iso-A2E were determined by reference to an external standard of HPLC-purified A2E/iso-A2E. […]
As shown in FIGS. 29A-D, both compounds, but especially TDT, were highly efficient in lowering A2E accumulation. FIGS. 29A-D show quantitation of A2E and iso-A2E in eye cups of Abcr −/− mice. […] FIG>29D: A2E/iso-A2E quantitation from integrated peak areas normalized to external standards. Values expressed as picomoles per eye and are based on single samples obtained by pooling 4 eyes.

[4] = test system: Sprague Dawley rats; conditions: reference [24]; cited from earlier work

SMILES | Kd [1] [nM] | tolerability / signs of toxicity [2] | effect on A2E accumulation [3] | inhibition of 11-cis-retinal regeneration after bleaching (literature) [4]
CCCCCCCCCCC(=O)/C=C(\C)CC/C=C(\C)CCC=C(C)C [TDT, 13,17,21-Trimethyl-docosa-12,16,20-trien-11-one] | 58 ± 5 | no obvious signs of toxicity and/or distress | profound effects on limiting A2E accumulation | 
CCCCCCCCCCCCCCCCNC(=O)/C=C(\C)CC/C=C(\C)CCC=C(C)C [TDH, 3,7,11-Trimethyl-dodeca-2,6,10-trienoic acid hexadecylamide] | 96 ± 14 | no obvious signs of toxicity and/or distress | profound effects on limiting A2E accumulation | 
CC1=C(/C=C/C(C)=C/C=C/C(C)=C\C(=O)O)C(C)(C)CCC1 [13-cis-retinoic acid, reference compound] |  |  |  | approximately 4 fold
